Reference: US5998594A, “Self-assembling, chromogenic receptors for the recognition of medically important substrates and their method of use” (University of Pittsburgh of the Commonwealth System of …, priority 1994, dated 1999)

Experiments:
[1] = UV-vis titration (ΔA550) with pimelic acid in CHCl3; assay type: binding
Excerpt: (§1) Complexation of Receptor 1 with Dicarboxylic Acids. Receptor 1 is a bis(acylaminopyridine) receptor and as such was expected to form strong bidentate interactions with dicarboxylic acids in chloroform. This was indeed the case, as 1 was found by NMR to bind glutaric acid with an association constant of 3.6×10^4 M^-1. Large changes in proton chemical shifts of 1 indicate that the dicarboxylic acid is hydrogen bonded simultaneously to the two acylaminopyridines moieties. […] The contribution of the phenanthroline to binding is uncertain, but it appears to play only a minor role; no protons on the phenanthroline ring shifted more than 0.014 ppm during the course of the titration. […] The stoichiometry of the complexes was 2:1 as determined by the concentration of dicarboxylic acid at which saturation of the receptor was found and independently determined by a Job's plot. A Job's plot is used to measure stoichiometry based on continuous variations of constant concentrations. Binding was most conveniently followed by UV-vis spectroscopy (ΔA550) and was checked against NMR results for pimelic acid and glutaric acid. The binding data was analyzed by assuming that two independent and equal bidentate binding sites are interacting with the substrate. In this way a single association constant is obtained that represents the strength of binding of one of the receptor binding sites with one substrate. […] An exception was N-Cbz-glutamic acid, which is understandable because there are several diastereotopic complexes present (vide infra), each with a different Ka.
(§2) Also reported in Table 2 are the λmax and the relative change in the absorptivity at 550 nm for each substrate/receptor combination. The changes in the absorption spectra are definitely substrate dependent. For example, complexation of pimelic acid results in a less pronounced increase in the shoulder near the red edge and a smaller blue shift in λmax (for Cu(1)2^+ BF4^-,λmax =445 nm) than complexation of the 5-carbon acids, glutaric and N-Cbz-glutamic. […]

[2] = NMR titration with pimelic acid; assay type: binding
Excerpt: (§3) Complexation of Receptor 1 with Dicarboxylic Acids. Receptor 1 is a bis(acylaminopyridine) receptor and as such was expected to form strong bidentate interactions with dicarboxylic acids in chloroform. This was indeed the case, as 1 was found by NMR to bind glutaric acid with an association constant of 3.6×10^4 M^-1. Large changes in proton chemical shifts of 1 indicate that the dicarboxylic acid is hydrogen bonded simultaneously to the two acylaminopyridines moieties. […] The contribution of the phenanthroline to binding is uncertain, but it appears to play only a minor role; no protons on the phenanthroline ring shifted more than 0.014 ppm during the course of the titration. […] The stoichiometry of the complexes was 2:1 as determined by the concentration of dicarboxylic acid at which saturation of the receptor was found and independently determined by a Job's plot. A Job's plot is used to measure stoichiometry based on continuous variations of constant concentrations. Binding was most conveniently followed by UV-vis spectroscopy (ΔA550) and was checked against NMR results for pimelic acid and glutaric acid. The binding data was analyzed by assuming that two independent and equal bidentate binding sites are interacting with the substrate. In this way a single association constant is obtained that represents the strength of binding of one of the receptor binding sites with one substrate. […]

[3] = UV-vis titration (ΔA550) with glutaric acid in CHCl3; assay type: binding
Description: FIG. 3 discloses the change in the visible absorption spectrum of Cu(1)2^+ BF4^- upon addition of glutaric acid in CHCl3 [Cu(1)2^+ BF4^- ]=0.106 mM, [glutaric acid]=0-0.5 mM.
FIG. 4 discloses the change in the visible absorption spectrum of [Cu(L)2^+ BF4^- ] upon addition of glutaric acid in CHCl3. [Cu(L)2^+ BF4^- ]=0-0.125 mM [glutaric acid]=0-0.40 mM.
as §1
(§4) From comparison of FIG. 3 with FIG. 4 which is a change in the visible absorption spectrum of Cu(L)2^+ BF4^- upon addition of glutaric acid, it is clear that the bis-dicarboxylic acid receptor, Cu(1)2^+ BF4^-, is more chromogenic than a mono-dicarboxylic acid receptor, Cu(L)2^+ BF4^-. [drawing 1] The relative change in A550 is 3-4 times greater for Cu(1)2^+ BF4^- than for Cu(L)2^+ BF4^-. A summary of the spectral changes that occur upon complex formation are present in Table 2 below. […]
The origin of the chromogenic effect is definitely a direct result of the bidentate binding of dicarboxylic acids to the receptors. Addition of large excesses of monocarboxylic acids (acetic or trifluoroacetic) to a CHCl3 solution of either Cu(I)-based receptor leads to only minor changes in the absorbance spectrum. […]

[4] = UV-vis titration (ΔA550) with 1,3-phenylenediacetic acid in CHCl3; assay type: binding
Excerpt: as §1, §2

air stability = assay type: physicochemical; conditions: Cu(I) complex
[5] = UV-vis titration (ΔA550) with N-Cbz-glutamic acid in CHCl3; assay type: binding
Excerpt: as §3, with “Binding was most conveniently followed by UV-vis spectroscopy (ΔA550) and was checked against NMR results for pimelic acid and glutaric acid.” left out, “substrate.” for “substrate. In this way a single association constant is obtained that represents the strength of binding of one of the receptor binding sites with one substrate.”
In the binding mode proposed in FIG. 5, the structure of the 2:1 complex of glutaric acid with Cu(1)2^+ BF4^- is chiral, similar to a double helix. […] This complicates the analysis of binding because six possibly different binding constants need to be evaluated. […]

[6] = complexation with dicarboxylic acids in CHCl3 (UV-vis, NMR, Job's plot); assay type: binding
Excerpt: as §1, §4

[7] = NMR titration with glutaric acid; assay type: binding
Excerpt: as §3

[8] = CHCl3, UV-vis ΔA550, per binding site

Binding Constant (Ka) UV-vis [1, 8] [M⁻¹]	Binding Constant (Ka) NMR [2] [M⁻¹]	Binding Constant (Ka) UV-vis ([3]; glutaric acid, CHCl3, UV-vis ΔA550, per binding site) [M⁻¹]	Binding Constant (Ka) UV-vis [4, 8] [M⁻¹]	air stability (air stability)	Binding Constant (Ka) UV-vis ([5]; CHCl3, UV-vis ΔA550, several diastereomeric complexes, all Ka assumed equal) [M⁻¹]	positive cooperativity in binding of second equivalent of dicarboxylic acid [6]	Binding Constant (Ka) NMR [7] [M⁻¹]	receptor strength for dicarboxylic acids ([6]; uncoordinated ligand)	association constant ([7]; uncoordinated receptor, chloroform) [M⁻¹]	Structure (SMILES)	spectral change relative to the other dicarboxylic acids [1]	% Increase ( = 550 nm) ([1]; absorptivity at 550 nm) [%]	relative change in A550, compared with Cu(L)2^+ BF4^- ([3]; glutaric acid, FIG. 3 vs FIG. 4)	% Increase ( = 550 nm) ([3]; glutaric acid, absorptivity at 550 nm) [%]	color change upon complexation ([3]; two equivalents of glutaric acid)	spectral change relative to the other dicarboxylic acids [4]	% Increase ( = 550 nm) ([4]; absorptivity at 550 nm) [%]	% Increase ( = 550 nm) ([5]; absorptivity at 550 nm) [%]	color change on binding ([6]; each dicarboxylic acid of Table 1)
17000	40000	78000	35000	air stable	40000	not observed	71000			Cc1cccc(NC(=O)c2ccc(-c3ccc4ccc5ccc(-c6ccc(C(=O)Nc7cccc(C)n7)cc6)nc5c4n3)cc2)n1.Cc1cccc(NC(=O)c2ccc(-c3ccc4ccc5ccc(-c6ccc(C(=O)Nc7cccc(C)n7)cc6)nc5c4n3)cc2)n1.F[B-](F)(F)F.[Cu+] [Cu(1)2^+ BF4^-]	smallest changes in the spectrum	62	3-4 times	101	obvious color change from pale orange to bright red	largest change	111	105	distinct color change from pale orange to bright red
								good receptor for dicarboxylic acids	36000	Cc1cccc(NC(=O)c2ccc(-c3ccc4ccc5ccc(-c6ccc(C(=O)Nc7cccc(C)n7)cc6)nc5c4n3)cc2)n1 [Receptor 1]									
